Reference: ChEMBL document CHEMBL1153273, “4-(Alkylthio)- and 4-(arylthio)-benzonitrile derivatives as androgen receptor antagonists for the topical suppression of sebum production” (Bioorg Med Chem Lett, 2009)
Blank lines part the entries; values can stand above or below the compound they belong to.

Tests used:
Androgen receptor [1] = target: T1, Androgen receptor (Homo sapiens, UniProt P10275)
T1 sequence (P10275 whole entry): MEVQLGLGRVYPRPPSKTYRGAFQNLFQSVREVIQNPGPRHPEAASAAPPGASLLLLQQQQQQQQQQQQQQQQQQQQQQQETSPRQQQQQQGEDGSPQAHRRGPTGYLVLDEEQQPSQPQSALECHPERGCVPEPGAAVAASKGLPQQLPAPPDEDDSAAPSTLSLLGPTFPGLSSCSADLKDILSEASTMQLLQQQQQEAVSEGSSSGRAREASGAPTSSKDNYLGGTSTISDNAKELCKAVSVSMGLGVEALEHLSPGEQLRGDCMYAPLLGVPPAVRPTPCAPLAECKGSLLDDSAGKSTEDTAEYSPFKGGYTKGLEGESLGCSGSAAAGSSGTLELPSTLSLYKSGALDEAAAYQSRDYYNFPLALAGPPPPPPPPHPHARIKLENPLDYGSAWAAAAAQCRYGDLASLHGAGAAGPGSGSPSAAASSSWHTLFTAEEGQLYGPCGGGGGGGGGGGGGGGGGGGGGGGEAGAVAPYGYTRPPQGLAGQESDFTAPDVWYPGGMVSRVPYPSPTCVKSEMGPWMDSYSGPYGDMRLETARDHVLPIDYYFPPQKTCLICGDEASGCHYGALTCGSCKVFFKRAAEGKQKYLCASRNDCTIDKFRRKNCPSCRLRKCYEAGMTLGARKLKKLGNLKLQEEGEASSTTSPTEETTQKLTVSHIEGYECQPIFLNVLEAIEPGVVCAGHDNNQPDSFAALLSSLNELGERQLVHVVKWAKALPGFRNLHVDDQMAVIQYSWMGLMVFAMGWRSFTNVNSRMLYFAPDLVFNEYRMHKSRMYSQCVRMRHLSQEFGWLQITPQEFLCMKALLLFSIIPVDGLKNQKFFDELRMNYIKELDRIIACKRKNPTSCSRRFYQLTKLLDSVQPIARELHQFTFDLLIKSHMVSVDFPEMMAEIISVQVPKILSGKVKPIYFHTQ
Description: Antagonist activity at human androgen receptor expressed in human MDA-MB453 cells by luciferase reporter gene assay

Androgen receptor [2] = target: T1, Androgen receptor; assay: biochemical
Description: Displacement of [3H]DHT from human cloned androgen receptor expressed in Sf9 cells

Syrian golden hamster [3] = assay: Reduction of cholesterol ester production in Syrian hamster ear topically dosed at 1% twice daily for 5 days per week for two weeks measured after 18 to 24 hrs of final dose by HPLC lipid analysis; type: functional, Mesocricetus auratus; parameters: scale not given: the % may be the effect or the level left
Syrian golden hamster [4] = assay: Reduction of wax ester production in Syrian hamster ear topically dosed at 1% twice daily for 5 days per week for two weeks measured after 18 to 24 hrs of final dose by HPLC lipid analysis; type: functional, Mesocricetus auratus; parameters: scale not given: the % may be the effect or the level left

IC50 (Androgen receptor [1]): > 1000 nM | IC50 (Androgen receptor [2]): 40 nM
Structure (SMILES): CCCSc1ccc(C#N)c(OC)c1

IC50 (Androgen receptor [2]): 353 nM
Structure (SMILES): COc1cc(C#N)ccc1Oc1cccc(C)c1

IC50 (Androgen receptor [1]): 30 nM | IC50 (Androgen receptor [2]): 43 nM
Structure (SMILES): COc1cc(Sc2c(C)cccc2C)ccc1C#N
Activity (Syrian golden hamster [3]): 45% | Activity (Syrian golden hamster [4]): 66%

IC50 (Androgen receptor [1]): 48 nM | IC50 (Androgen receptor [2]): 115 nM
Structure (SMILES): COc1cc(C#N)ccc1Oc1ccccc1C

IC50 (Androgen receptor [1]): 66 nM | IC50 (Androgen receptor [2]): 84 nM
Structure (SMILES): CCCCSc1ccc(C#N)c(OC)c1

IC50 (Androgen receptor [1]): 69 nM | IC50 (Androgen receptor [2]): 39 nM
Structure (SMILES): COc1cc(Sc2c(C)cc(C)cc2C)ccc1C#N

IC50 (Androgen receptor [2]): 5210 nM
Structure (SMILES): COc1cc(C#N)ccc1Oc1ccc(C)cc1

IC50 (Androgen receptor [1]): 78 nM | IC50 (Androgen receptor [2]): 43 nM
Structure (SMILES): Cc1ccccc1Sc1ccc(C#N)cc1Cl

IC50 (Androgen receptor [1]): 197 nM | IC50 (Androgen receptor [2]): 57 nM
Structure (SMILES): COc1cc(Oc2cccc(C)c2)ccc1C#N

IC50 (Androgen receptor [2]): > 10000 nM
Structure (SMILES): Cc1ccccc1[S+]([O-])c1ccc(C#N)cc1Cl (configuration not stated)

IC50 (Androgen receptor [1]): 81 nM | IC50 (Androgen receptor [2]): 24 nM
Structure (SMILES): COc1cc(Oc2ccccc2C)ccc1C#N

IC50 (Androgen receptor [1]): 209 nM | IC50 (Androgen receptor [2]): 200 nM
Structure (SMILES): COc1cc(Oc2ccc(C)cc2)ccc1C#N

More lines, now with the values behind:

Structure (SMILES): COc1cc(SC(C)C)ccc1C#N
Activity (Syrian golden hamster [3]): 46% | IC50 (Androgen receptor [1]): 10 nM | IC50 (Androgen receptor [2]): 29 nM | Activity (Syrian golden hamster [4]): 59%

Structure (SMILES): CC(C)(C)Sc1ccc(C#N)c(C(F)(F)F)c1
IC50 (Androgen receptor [2]): 315 nM

Structure (SMILES): N#Cc1ccc(SC2CCC2)cc1C(F)(F)F
IC50 (Androgen receptor [1]): 167 nM | IC50 (Androgen receptor [2]): 194 nM

Structure (SMILES): COc1cc(SCC2CCC2)ccc1C#N
IC50 (Androgen receptor [2]): 441 nM

Structure (SMILES): N#Cc1ccc(SCC2CC2)cc1C(F)(F)F
Activity (Syrian golden hamster [3]): 35% | IC50 (Androgen receptor [1]): 133 nM | IC50 (Androgen receptor [2]): 35 nM | Activity (Syrian golden hamster [4]): 43%

Structure (SMILES): N#Cc1ccc(SCC2CCC2)cc1C(F)(F)F
IC50 (Androgen receptor [1]): 702 nM | IC50 (Androgen receptor [2]): 63 nM

Structure (SMILES): CC(C)Sc1ccc(C#N)c(C(F)(F)F)c1
Activity (Syrian golden hamster [3]): 40% | IC50 (Androgen receptor [1]): 89 nM | IC50 (Androgen receptor [2]): 20 nM | Activity (Syrian golden hamster [4]): 46%

Structure (SMILES): Cc1ccccc1Sc1ccc(C#N)c(C(F)(F)F)c1
IC50 (Androgen receptor [1]): 123 nM | IC50 (Androgen receptor [2]): 225 nM

Structure (SMILES): COc1ccccc1Sc1ccc(C#N)c(C(F)(F)F)c1
IC50 (Androgen receptor [1]): 37 nM | IC50 (Androgen receptor [2]): 56 nM

Structure (SMILES): Cc1cccc(C)c1Sc1ccc(C#N)c(C(F)(F)F)c1
IC50 (Androgen receptor [2]): 411 nM

Structure (SMILES): Cc1cc(C)c(Sc2ccc(C#N)c(C(F)(F)F)c2)c(C)c1
IC50 (Androgen receptor [2]): 1340 nM

Structure (SMILES): COc1cc(SCCC(C)C)ccc1C#N
IC50 (Androgen receptor [2]): 1730 nM

Structure (SMILES): CCCSc1ccc(C#N)c(C(F)(F)F)c1
IC50 (Androgen receptor [1]): 11 nM | IC50 (Androgen receptor [2]): 23 nM

Structure (SMILES): CCCCSc1ccc(C#N)c(C(F)(F)F)c1
IC50 (Androgen receptor [1]): 838 nM | IC50 (Androgen receptor [2]): 49 nM

Structure (SMILES): CC(C)CCSc1ccc(C#N)c(C(F)(F)F)c1
IC50 (Androgen receptor [2]): 519 nM

Structure (SMILES): COc1cc(SCC2CC2)ccc1C#N
IC50 (Androgen receptor [1]): 55 nM | IC50 (Androgen receptor [2]): 169 nM

Structure (SMILES): N#Cc1ccc(Sc2ccccc2F)cc1C(F)(F)F
Activity (Syrian golden hamster [3]): 50% | IC50 (Androgen receptor [1]): 54 nM | IC50 (Androgen receptor [2]): 184 nM | Activity (Syrian golden hamster [4]): 64%

Structure (SMILES): COc1cc(Sc2ccccc2OC)ccc1C#N
IC50 (Androgen receptor [1]): 35 nM | IC50 (Androgen receptor [2]): 20 nM

Structure (SMILES): CC1(C)C(=O)N(c2ccc(C#N)c(C(F)(F)F)c2)C(=O)N1CCCCO [RU-58841]
Activity (Syrian golden hamster [4]): 95%
